One substance from patent publication US11680085B2, “Cyclic peptides for protection against respiratory syncytial virus” (VIROMETIX AG, priority 2017, dated 2023) can be followed below.

This experiment deals with RSV A/Tracy. Briefly: Micro-Neutralization Test (MNT). The note with it: 40 μg/ml mAb in test solution. It counts as cell-based, respiratory syncytial virus. The protocol: In order to assess the neutralization capacity of the mAb at 40 μg/ml against RSV A/Tracy a Micro-Neutralization Test (MNT) was performed. A 40 μg/ml Palivizumab stock was taken as positive control and 40 μg/ml stock of an isotype-matched mAb as negative control (Table 10).

For the substance Palivizumab, the “RSV A, Tracy MN titer (log2)” value was 5.0 log2.
